pIC50: −log10 of the molar value. A value given as a limit tells only on which side of the number the result lay.

The first assay concerns SF-295. In words: cells. Type of assay: functional, cell-based. Conditions: Homo sapiens.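 Also: growth inhibition of SF-295 cells, read out with a cell viability assay.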
Description: SANGER: Inhibition of human SF295 cell growth in a cell viability assay.
As to `CC1(C)CCC(c2ccc(Cl)cc2)=C(CN2CCN(c3ccc(C(=O)NS(=O)(=O)c4ccc(N[C@H](CCN5CCOCC5)CSc5ccccc5)c(S(=O)(=O)C(F)(F)F)c4)cc3)CC2)C1` [NAVITOCLAX], the pIC50 was less than 5.70.

A further assay deals with 5637. In words: cells. Conditions: Homo sapiens. Type of assay: functional, cell-based.
Description: SANGER: Inhibition of human 5637 cell growth in a cell viability assay.
The compound `CC1(C)CCC(c2ccc(Cl)cc2)=C(CN2CCN(c3ccc(C(=O)NS(=O)(=O)c4ccc(N[C@H](CCN5CCOCC5)CSc5ccccc5)c(S(=O)(=O)C(F)(F)F)c4)cc3)CC2)C1` [NAVITOCLAX] gave a negative logarithm of the IC50 (pIC50) of less than 5.70.

The subject of another assay is ChaGo-K-1. In words: cells. Type of assay: functional, cell-based. Conditions: Homo sapiens.
Description: SANGER: Inhibition of human ChaGo-K-1 cell growth in a cell viability assay.
On to `CC1(C)CCC(c2ccc(Cl)cc2)=C(CN2CCN(c3ccc(C(=O)NS(=O)(=O)c4ccc(N[C@H](CCN5CCOCC5)CSc5ccccc5)c(S(=O)(=O)C(F)(F)F)c4)cc3)CC2)C1` [NAVITOCLAX], for which the pIC50 was less than 5.70.

Another assay has as its system HT55. In words: cells. Type of assay: functional, cell-based. Conditions: Homo sapiens.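 Also: cell viability readout measuring growth inhibition of human HT55 cells.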
Description: SANGER: Inhibition of human HT55 cell growth in a cell viability assay.
`CC1(C)CCC(c2ccc(Cl)cc2)=C(CN2CCN(c3ccc(C(=O)NS(=O)(=O)c4ccc(N[C@H](CCN5CCOCC5)CSc5ccccc5)c(S(=O)(=O)C(F)(F)F)c4)cc3)CC2)C1` [NAVITOCLAX] had a pIC50 of less than 5.70.

In another assay the test system is HSC-3. In words: cells. It counts as functional, cell-based. Conditions: Homo sapiens.
Description: SANGER: Inhibition of human HSC-3 cell growth in a cell viability assay.
`CC1(C)CCC(c2ccc(Cl)cc2)=C(CN2CCN(c3ccc(C(=O)NS(=O)(=O)c4ccc(N[C@H](CCN5CCOCC5)CSc5ccccc5)c(S(=O)(=O)C(F)(F)F)c4)cc3)CC2)C1` [NAVITOCLAX] showed a negative logarithm of the IC50 (pIC50) of 5.71.

The subject of the next assay is MG-63. In words: cells. Conditions: Homo sapiens. It counts as functional, cell-based.
Description: SANGER: Inhibition of human MG-63 cell growth in a cell viability assay.
On to `CC1(C)CCC(c2ccc(Cl)cc2)=C(CN2CCN(c3ccc(C(=O)NS(=O)(=O)c4ccc(N[C@H](CCN5CCOCC5)CSc5ccccc5)c(S(=O)(=O)C(F)(F)F)c4)cc3)CC2)C1` [NAVITOCLAX], for which the pIC50 was less than 5.70.

A further assay has as its system SK-N-AS. In words: cells. It counts as functional, cell-based. Conditions: Homo sapiens.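 Also: growth inhibition of human SK-N-AS cells, measured with a cell viability assay.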
Description: SANGER: Inhibition of human SK-N-AS cell growth in a cell viability assay.
Regarding `CC1(C)CCC(c2ccc(Cl)cc2)=C(CN2CCN(c3ccc(C(=O)NS(=O)(=O)c4ccc(N[C@H](CCN5CCOCC5)CSc5ccccc5)c(S(=O)(=O)C(F)(F)F)c4)cc3)CC2)C1` [NAVITOCLAX], the negative logarithm of the IC50 (pIC50) is less than 5.70.

The test system of another assay is DK-MG. In words: cells. Type of assay: functional, cell-based. Conditions: Homo sapiens.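 Also: growth inhibition of DK-MG cells, read out with a cell viability assay.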
Description: SANGER: Inhibition of human DK-MG cell growth in a cell viability assay.
Regarding `CC1(C)CCC(c2ccc(Cl)cc2)=C(CN2CCN(c3ccc(C(=O)NS(=O)(=O)c4ccc(N[C@H](CCN5CCOCC5)CSc5ccccc5)c(S(=O)(=O)C(F)(F)F)c4)cc3)CC2)C1` [NAVITOCLAX], the negative logarithm of the IC50 (pIC50) is less than 5.70.

The test system of the next assay is WM-115. In words: cells. Type of assay: functional, cell-based. Conditions: Homo sapiens.
Description: SANGER: Inhibition of human WM-115 cell growth in a cell viability assay.
Regarding `CC1(C)CCC(c2ccc(Cl)cc2)=C(CN2CCN(c3ccc(C(=O)NS(=O)(=O)c4ccc(N[C@H](CCN5CCOCC5)CSc5ccccc5)c(S(=O)(=O)C(F)(F)F)c4)cc3)CC2)C1` [NAVITOCLAX], the negative-log IC50 (pIC50) is 6.56.

Another assay deals with SAOS-2. In words: cells. It counts as functional, cell-based. Conditions: Homo sapiens.
Description: SANGER: Inhibition of human Saos-2 cell growth in a cell viability assay.
Take `CC1(C)CCC(c2ccc(Cl)cc2)=C(CN2CCN(c3ccc(C(=O)NS(=O)(=O)c4ccc(N[C@H](CCN5CCOCC5)CSc5ccccc5)c(S(=O)(=O)C(F)(F)F)c4)cc3)CC2)C1` [NAVITOCLAX]: the pIC50 is less than 5.70.

A further assay has as its system OVCAR-8. In words: cells. It counts as functional, cell-based. Conditions: Homo sapiens.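 Also: growth inhibition of human OVCAR-8 cells, read out by a cell viability assay.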
Description: SANGER: Inhibition of human OVCAR-8 cell growth in a cell viability assay.
In the case of `CC1(C)CCC(c2ccc(Cl)cc2)=C(CN2CCN(c3ccc(C(=O)NS(=O)(=O)c4ccc(N[C@H](CCN5CCOCC5)CSc5ccccc5)c(S(=O)(=O)C(F)(F)F)c4)cc3)CC2)C1` [NAVITOCLAX], the pIC50 was less than 5.70.

The subject of a further assay is Huh-7. In words: cells. Conditions: Homo sapiens. It counts as functional, cell-based.
Description: SANGER: Inhibition of human HuH-7 cell growth in a cell viability assay.
Regarding `CC1(C)CCC(c2ccc(Cl)cc2)=C(CN2CCN(c3ccc(C(=O)NS(=O)(=O)c4ccc(N[C@H](CCN5CCOCC5)CSc5ccccc5)c(S(=O)(=O)C(F)(F)F)c4)cc3)CC2)C1` [NAVITOCLAX], the pIC50 is 5.78.

The subject of a further assay is EFM-19. In words: cells. Type of assay: functional, cell-based. Conditions: Homo sapiens.
Description: SANGER: Inhibition of human EFM-19 cell growth in a cell viability assay.
For `CC1(C)CCC(c2ccc(Cl)cc2)=C(CN2CCN(c3ccc(C(=O)NS(=O)(=O)c4ccc(N[C@H](CCN5CCOCC5)CSc5ccccc5)c(S(=O)(=O)C(F)(F)F)c4)cc3)CC2)C1` [NAVITOCLAX], the negative logarithm of the IC50 (pIC50) is less than 5.70.

Another assay deals with 769-P. In words: cells. Conditions: Homo sapiens. Type of assay: functional, cell-based.
Description: SANGER: Inhibition of human 769-P cell growth in a cell viability assay.
In turn, `CC1(C)CCC(c2ccc(Cl)cc2)=C(CN2CCN(c3ccc(C(=O)NS(=O)(=O)c4ccc(N[C@H](CCN5CCOCC5)CSc5ccccc5)c(S(=O)(=O)C(F)(F)F)c4)cc3)CC2)C1` [NAVITOCLAX] had a pIC50 of less than 5.70.

For another assay, the system named is MIA PaCa-2. In words: cells. It counts as functional, cell-based. Conditions: Homo sapiens.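 Also: growth inhibition of MIA PaCa-2 cells, read out with a cell viability assay.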
Description: SANGER: Inhibition of human MIA-PaCa-2 cell growth in a cell viability assay.
Turning to `CC1(C)CCC(c2ccc(Cl)cc2)=C(CN2CCN(c3ccc(C(=O)NS(=O)(=O)c4ccc(N[C@H](CCN5CCOCC5)CSc5ccccc5)c(S(=O)(=O)C(F)(F)F)c4)cc3)CC2)C1` [NAVITOCLAX], the pIC50 was less than 5.70.

In the next assay the test system is Panc1005. In words: cells. Type of assay: functional, cell-based. Conditions: Homo sapiens.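 Also: growth inhibition of human PANC-10-05 cells, measured by a cell viability assay.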
Description: SANGER: Inhibition of human PANC-10-05 cell growth in a cell viability assay.
Compound `CC1(C)CCC(c2ccc(Cl)cc2)=C(CN2CCN(c3ccc(C(=O)NS(=O)(=O)c4ccc(N[C@H](CCN5CCOCC5)CSc5ccccc5)c(S(=O)(=O)C(F)(F)F)c4)cc3)CC2)C1` [NAVITOCLAX] had a negative logarithm of the IC50 (pIC50) of less than 5.70.

The subject of a further assay is 647-V. In words: cells. It counts as functional, cell-based. Conditions: Homo sapiens.
Description: SANGER: Inhibition of human 647-V cell growth in a cell viability assay.
In the case of `CC1(C)CCC(c2ccc(Cl)cc2)=C(CN2CCN(c3ccc(C(=O)NS(=O)(=O)c4ccc(N[C@H](CCN5CCOCC5)CSc5ccccc5)c(S(=O)(=O)C(F)(F)F)c4)cc3)CC2)C1` [NAVITOCLAX], the negative logarithm of the IC50 (pIC50) was less than 5.70.

A further assay relates to NCI-H441. In words: cells. Conditions: Homo sapiens. It counts as functional, cell-based.
Description: SANGER: Inhibition of human NCI-H441 cell growth in a cell viability assay.
`CC1(C)CCC(c2ccc(Cl)cc2)=C(CN2CCN(c3ccc(C(=O)NS(=O)(=O)c4ccc(N[C@H](CCN5CCOCC5)CSc5ccccc5)c(S(=O)(=O)C(F)(F)F)c4)cc3)CC2)C1` [NAVITOCLAX] showed a negative logarithm of the IC50 (pIC50) of less than 5.70.

The subject of another assay is G-401. In words: cells. Type of assay: functional, cell-based. Conditions: Homo sapiens.
Description: SANGER: Inhibition of human G-401 cell growth in a cell viability assay.
On to `CC1(C)CCC(c2ccc(Cl)cc2)=C(CN2CCN(c3ccc(C(=O)NS(=O)(=O)c4ccc(N[C@H](CCN5CCOCC5)CSc5ccccc5)c(S(=O)(=O)C(F)(F)F)c4)cc3)CC2)C1` [NAVITOCLAX], for which the negative logarithm of the IC50 (pIC50) is less than 5.70.

In another assay the test system is OE33. In words: cells. Conditions: Homo sapiens. Type of assay: functional, cell-based.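 Also: growth inhibition of human OE33 cells, measured by a cell viability assay.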
Description: SANGER: Inhibition of human OE33 cell growth in a cell viability assay.
The compound `CC1(C)CCC(c2ccc(Cl)cc2)=C(CN2CCN(c3ccc(C(=O)NS(=O)(=O)c4ccc(N[C@H](CCN5CCOCC5)CSc5ccccc5)c(S(=O)(=O)C(F)(F)F)c4)cc3)CC2)C1` [NAVITOCLAX] had a negative logarithm of the IC50 (pIC50) of less than 5.70.

For the next assay, the system named is NCI-H2347. In words: cells. Conditions: Homo sapiens. Type of assay: functional, cell-based.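 Also: growth inhibition of the cell line, read out with a cell viability assay.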
Description: SANGER: Inhibition of human NCI-H2347 cell growth in a cell viability assay.
Compound `CC1(C)CCC(c2ccc(Cl)cc2)=C(CN2CCN(c3ccc(C(=O)NS(=O)(=O)c4ccc(N[C@H](CCN5CCOCC5)CSc5ccccc5)c(S(=O)(=O)C(F)(F)F)c4)cc3)CC2)C1` [NAVITOCLAX] gave a pIC50 of less than 5.70.

A further assay has as its system RO82-W-1. In words: cells. It counts as functional, cell-based. Conditions: Homo sapiens.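 Also: growth inhibition of human RO82-W-1 cells, measured with a cell viability assay.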
Description: SANGER: Inhibition of human RO82-W-1 cell growth in a cell viability assay.
With `CC1(C)CCC(c2ccc(Cl)cc2)=C(CN2CCN(c3ccc(C(=O)NS(=O)(=O)c4ccc(N[C@H](CCN5CCOCC5)CSc5ccccc5)c(S(=O)(=O)C(F)(F)F)c4)cc3)CC2)C1` [NAVITOCLAX], the negative logarithm of the IC50 (pIC50) was less than 5.70.

The test system of a further assay is EGI-1. In words: cells. It counts as functional, cell-based. Conditions: Homo sapiens.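 Also: cell viability readout used to gauge growth inhibition of EGI-1 cells.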
Description: SANGER: Inhibition of human EGI-1 cell growth in a cell viability assay.
The compound `CC1(C)CCC(c2ccc(Cl)cc2)=C(CN2CCN(c3ccc(C(=O)NS(=O)(=O)c4ccc(N[C@H](CCN5CCOCC5)CSc5ccccc5)c(S(=O)(=O)C(F)(F)F)c4)cc3)CC2)C1` [NAVITOCLAX] gave a negative logarithm of the IC50 (pIC50) of less than 5.70.

A word on the pIC50: it is −log10 of the IC50, conventionally taken in molar units. A lower pIC50 goes with a high IC50.

The values above are taken from ChEMBL document CHEMBL1201861, “Genomics of Drug Sensitity in Cancer screening data, Wellcome Trust Sanger Institute”.
